{
  "source": "patent US7714132B2",
  "about": "“Tetrahydropyridoindole derivatives” (Actelion Pharmaceuticals, Ltd., priority 2004, dated 2010)",
  "data": [
    {"molecular_target": "T1, hCRTH2 receptor (Homo sapiens, UniProt Q9Y5Y4)", "T1 construct": "expressed in transfected cells", "T1 sequence (Q9Y5Y4 1-395)": "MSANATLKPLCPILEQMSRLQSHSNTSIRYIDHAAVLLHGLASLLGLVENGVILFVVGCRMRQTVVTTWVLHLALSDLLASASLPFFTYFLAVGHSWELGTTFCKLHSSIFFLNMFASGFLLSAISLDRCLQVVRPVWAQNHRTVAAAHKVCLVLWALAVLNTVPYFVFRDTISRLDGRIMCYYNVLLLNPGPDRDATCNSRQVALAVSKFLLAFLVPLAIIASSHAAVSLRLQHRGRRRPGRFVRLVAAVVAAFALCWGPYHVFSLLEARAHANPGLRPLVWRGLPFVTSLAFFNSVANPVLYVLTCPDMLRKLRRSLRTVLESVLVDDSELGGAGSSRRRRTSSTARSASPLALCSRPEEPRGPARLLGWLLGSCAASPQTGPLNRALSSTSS", "experiment": "CRTH2 membranes radioligand binding assay ({3H}-PGD2)", "details": "membranes of HEK 293 cells expressing recombinant hCRTH2; {3H}-PGD2 2.5 nM; 90 min", "method": "Biological Assay: Preparation of CRTH2 Membranes and Radioligand Binding Assay:\nPreparation of the membranes and radioligand binding assays are performed according to known procedures, e.g. Sawyer N. et al. (Br. J. Pharmacol., 2002, 137, 1163-1172). A clonal HEK 293 cell line, expressing high level of recombinant hCRTH2 receptor, is selected for the preparation of membranes. Cells are detached from culture plates in 5 ml buffer A per plate (5 mM Tris, 1 mM MgCl2x6 H2O, 0.1 mM PMSF, 0.1 mM phenanthroline) using a police rubber and transferred into centrifugation tubes and frozen at −80° C. After thawing, the cells are centrifuged at 500 g for 5 min and then resuspended in buffer A. Cells are then fragmented by homogeinization with a Polytron homogenizer for 30 s. The membrane fragments are centrifuged at 3000 g for 40 min and resuspended in membranes in buffer B (50 mM Tris, 25 mM MgCl2, 250 mM saccharose, pH 7.4) and aliquots are stored frozen.\nBinding assay is performed in a total volume of 250 μl. In each well, 75 μl buffer C (50 mM Tris, 100 mM NaCl, 1 mM EDTA, 0.1% B SA (protease free), 0.01% NaN3, pH 7.4) is mixed with 50 μl {^3H}-PGD2 (at 2.5 nM (220.000 dpm per well) from Amersham, TRK734), 100 μl CRTH2 membranes to give 80 μg per well and 25 μl of test compound in buffer C containing 1% DMSO. For unspecific binding, PGD2 is added to the reaction mixture at 1 μM final concentration. This binding assay mix is incubated at it for 90 min and then filtered through a GF/C filter plate. The filter is washed three times with ice cold binding buffer. Then, 40 μl per well Microscint-40 (Packard) are added and the bound radioactivity is quantified by means of Topcourt (Packard).", "units": {"IC50": "nM"}, "values": [
      {"smiles": "O=C(O)Cn1c2c(c3cc(C(F)(F)F)ccc31)CN(C(=O)c1ccccc1)CC2", "note": "[(2-benzoyl-8-trifluoromethyl-1,2,3,4-tetrahydro-pyrido[4,3-b]indol-5-yl)-acetic acid]", "IC50": 1},
      {"smiles": "Cc1cccc(C(=O)N2CCc3c(c4ccccc4n3CC(=O)O)C2)c1Br", "note": "[[2-(2-bromo-3-methyl-benzoyl)-1,2,3,4-tetrahydro-pyrido[4,3-b]indol-5-yl]-acetic acid]", "IC50": 14},
      {"smiles": "O=C(O)Cn1c2c(c3ccccc31)CN(C(=O)c1cccc(Cl)c1)CC2", "note": "[[2-(3-chloro-benzoyl)-1,2,3,4-tetrahydro-pyrido[4,3-b]indol-5-yl]-acetic acid]", "IC50": 15},
      {"smiles": "CCc1ccc(-c2ccc(C(=O)N3CCc4c(c5ccccc5n4CC(=O)O)C3)cc2)cc1", "note": "[[2-(4′-ethyl-biphenyl-4-carbonyl)-1,2,3,4-tetrahydro-pyrido[4,3-b]indol-5-yl]-acetic acid]", "IC50": 7},
      {"smiles": "CCc1ccc(-c2ccc(C(=O)N3CCc4c(c5cc(F)ccc5n4CC(=O)O)C3)cc2)cc1", "note": "[[2-(4′-ethyl-biphenyl-4-carbonyl)-8-fluoro-1,2,3,4-tetrahydro-pyrido[4,3-b]indol-5-yl]-acetic acid]", "IC50": 1},
      {"smiles": "O=C(O)Cn1c2c(c3ccccc31)CN(C(=O)c1cccc3c(Br)cccc13)CC2", "note": "[[2-(5-bromo-naphthalene-1-carbonyl)-1,2,3,4-tetrahydro-pyrido[4,3-b]indol-5-yl]-acetic acid]", "IC50": 12},
      {"smiles": "O=C(O)Cn1c2c(c3cc(Br)ccc31)CN(C(=O)c1cccs1)CC2", "note": "[[8-bromo-2-(thiophene-2-carbonyl)-1,2,3,4-tetrahydro-pyrido[4,3-b]indol-5-yl]-acetic acid]", "IC50": 4},
      {"smiles": "O=C(O)Cn1c2c(c3cc(F)ccc31)CN(C(=O)Cc1cccc3ccccc13)CC2", "note": "[[8-fluoro-2-(2-naphthalen-1-yl-acetyl)-1,2,3,4-tetrahydro-pyrido[4,3-b]indol-5-yl]-acetic acid]", "IC50": 3}
    ]},
    {"molecular_target": "T1, hCRTH2 receptor", "experiment": "Intracellular calcium mobilization assay (FLIPR), antagonism of prostaglandin D2", "assay_type": "cell-based", "details": "HEK-293 cells stably expressing hCRTH2; agonist prostaglandin D2 10 nM final; read-out: FLIPR CRTH2 IC50", "method": "Intracellular Calcium Mobilization Assay (FLIPR):\nCells (HEK-293), stably expressing the hCRTH2 receptor under the control of the cytomegalovirus promotor from a single insertion of the expression vector pcDNA5 (Invitrogen), are grown to confluency in DMEM (low glucose, Gibco) medium supplemented with 10% fetal calf serum (both Bioconcept, Switzerland) under standard mammalian cell culture conditions (37° C. in a humidified atmosphere of 5% CO2). Cells are detached from culture dishes using a dissociation buffer (0.02% EDTA in PBS, Gibco) for 1 min, and collected by centrifugation at 200 g at rt for 5 min in assay buffer [equal parts of Hank's BSS (HBSS, Bioconcept) and DMEM (low glucose, without phenol red, Gibco)]. After incubation for 45 min (37° C. and 5% CO2) in the presence of 1 μM Fluo-4 and 0.04% Pluronic F-127 (both Molecular Probes), 20 mM HEPES (Gibco) in assay buffer, the cells are washed with and resuspended in assay buffer, then seeded onto 3 84-welt FLIPR assay plates (Greiner) at 50,000 cells in 66 μl per well, and sedimented by centrifugation.\nStock solutions of test compounds are made up at a concentration of 10 mM in DMSO, and serially diluted in assay buffer to concentrations required for inhibition dose response curves. Prostaglandin D2 (Biomol, Plymouth Meeting, Pa.) is used as an agonist.\nA FLIPR384 instrument (Molecular Devices) is operated according to the manufacturer's standard instructions, adding 4 μl of test compound dissolved at 10 mM in DMSO and diluted prior to the experiment in assay buffer to obtain the desired final concentration. 10 μl of 80 nM prostaglandin D2 (Biomol, Plymouth Meeting, Pa.) in assay buffer, supplemented with 0.8% bovine serum albumin (fatty acid content<0.02%, Sigma), is then added to obtain a final concentration of 10 nM and 0.1%, respectively. Changes in fluorescence are monitored before and after the addition of test compounds at λex=488 nm and λem=540 nm. Emission peak values above base level after prostaglandin D2 addition are exported after base line subtraction. Values are normalized to high-level control (no test compound added) after subtraction of base line value (no prostaglandin D2 added). The program XLlfit 3.0 (IDBS) is used to fit the data to a single site dose response curve of the equation (A+((B−A)/(1+((C/x)^D)))) and to calculate the IC50 values.", "units": {"IC50": "nM"}, "values": [
      {"smiles": "CC(C)(C)OC(=O)N1CCc2c(c3cc(F)ccc3n2CC(=O)O)C1", "note": "[5-carboxymethyl-8-fluoro-1,3,4,5-tetrahydro-pyrido[4,3-b]indole-2-carboxylic acid tert-butyl ester]", "IC50": 22},
      {"smiles": "O=C(O)Cn1c2c(c3ccccc31)CN(C(=O)c1cccc3[nH]ccc13)CC2", "note": "[[2-(1H-indole-4-carbonyl)-1,2,3,4-tetrahydro-pyrido[4,3-b]indol-5-yl]-acetic acid]", "IC50": 19},
      {"smiles": "COc1cc(C(=O)N2CCc3c(c4ccccc4n3CC(=O)O)C2)cc(OC)c1OC", "note": "[[2-(3,4,5-trimethoxy-benzoyl)-1,2,3,4-tetrahydro-pyrido[4,3-b]indol-5-yl]-acetic acid]", "IC50": 91},
      {"smiles": "O=C(O)Cn1c2c(c3ccccc31)CN(C(=O)c1cccc(Cl)c1)CC2", "note": "[[2-(3-chloro-benzoyl)-1,2,3,4-tetrahydro-pyrido[4,3-b]indol-5-yl]-acetic acid]", "IC50": 174},
      {"smiles": "O=C(O)Cn1c2c(c3ccccc31)CN(C(=O)c1ccc(Br)cc1)CC2", "note": "[[2-(4-bromo-benzoyl)-1,2,3,4-tetrahydro-pyrido[4,3-b]indol-5-yl]-acetic acid]", "IC50": 83},
      {"smiles": "O=C(O)Cn1c2c(c3ccccc31)CN(C(=O)c1ccco1)CC2", "note": "[[2-(furan-2-carbonyl)-1,2,3,4-tetrahydro-pyrido[4,3-b]indol-5-yl]-acetic acid]", "IC50": 88},
      {"smiles": "Cc1cccc(C(=O)N2CCc3c(c4cc(Br)ccc4n3CC(=O)O)C2)c1Br", "note": "[[8-bromo-2-(2-bromo-3-methyl-benzoyl)-1,2,3,4-tetrahydro-pyrido[4,3-b]indol-5-yl]-acetic acid]", "IC50": 15},
      {"smiles": "COc1ccc2ccccc2c1C(=O)N1CCc2c(c3cc(Cl)ccc3n2CC(=O)O)C1", "note": "[[8-chloro-2-(2-methoxy-naphthalene-1-carbonyl)-1,2,3,4-tetrahydro-pyrido[4,3-b]indol-5-yl]-acetic acid]", "IC50": 3},
      {"smiles": "O=C(O)Cn1c2c(c3cc(Cl)ccc31)CN(C(=O)c1cccs1)CC2", "note": "[[8-chloro-2-(thiophene-2-carbonyl)-1,2,3,4-tetrahydro-pyrido[4,3-b]indol-5-yl]-acetic acid]", "IC50": 50}
    ]}
  ]
}
